Data taken from US9695155B2, “Herbicidal substituted pyrimidinyloxy benzene compounds” (E. I. DU PONT DE NEMOURS AND COMPANY, priority 2013, dated 2017).

Tests used:
kochia = test: Test D postemergence; assay type: in vivo, Kochia scoparia; conditions: Bassia scoparia, post-emergence
In short: (§1)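 Species were sown in silt loam for preemergence treatment, or grown in peat-based medium to the 1–4-leaf stage (2–18 cm) for postemergence sprays. Test chemicals were formulated in a non-phytotoxic solvent mixture with surfactant. After 7–21 days in a controlled environment, plants were rated visually against controls on a 0 (no effect) to 100 (complete control) scale.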

dallisgrass = test: Test F preemergence; assay type: in vivo, Paspalum dilatatum; conditions: 21 days, scale 0 to 100
Source text: (§2) Seeds of plant species selected from bermudagrass (Cynodon dactylon), surinam grass (Brachiaria decumbens), large (Lg) crabgrass (Digitaria sanguinalis), crabgrass, naked (naked crabgrass, Digitaria nuda), foxtail, green (green foxtail, Setaria viridis), johnsongrass (Sorghum halepense), kochia (Kochia scoparia), morningglory (pitted morningglory, Ipomoea lacunosa), nutsedge, purple (purple nutsedge, Cyperus rotundus), ragweed (common ragweed, Ambrosia elatior), mustard, black (black mustard, Brassica nigra), guineagrass (Panicum maximum), dallisgrass (Paspalum dilatatum), barnyardgrass (Echinochloa crus-galli), sandbur (southern sandbur, Cenchrus echinatus), sowthistle (common sowthistle, Sonchus oleraceous), Italian ryegrass (Lolium multiflorum), signalgrass (broadleaf signalgrass, Brachiaria platyphylla), dayflower (Virginia (VA) dayflower, Commelina virginica), bluegrass (annual bluegrass, Poa annua), quackgrass (Elytrigia repens), mallow (common mallow, Malva sylvestris), buckwheat, wild (wild buckwheat, Polygonum convolvulus), leafy spurge (Euphorbia esula), chickweed (common chickweed, Stellaria media), wild poinsettia (Euphorbia heterophylla), and pigweed (Amaranthus retroflexus) were planted into a blend of loam soil and sand and treated preemergence with test chemicals formulated in a non-phytotoxic solvent mixture which included a surfactant.
(§3) Treated plants and controls were maintained in a greenhouse for 21 days, after which time all species were compared to controls and visually evaluated. Plant response ratings, summarized in Table F, are based on a scale of 0 to 100 where 0 is no effect and 100 is complete control. A dash (-) response means no test result.

bermudagrass = test: Test F preemergence; assay type: in vivo, Cynodon dactylon; conditions: 21 days, scale 0 to 100
Source text: as §2, §3

pigweed [1] = test: Test D preemergence; assay type: in vivo, Amaranthus retroflexus; conditions: Amaranthus retroflexus, pre-emergence
In short: as §1

winter wheat = test: Test D postemergence; assay type: in vivo, Triticum aestivum; conditions: Triticum aestivum, post-emergence
In short: as §1

spring wheat = test: Test D postemergence; assay type: in vivo, Triticum aestivum; conditions: Triticum aestivum, post-emergence
In short: as §1

windgrass = test: Test D postemergence; assay type: in vivo, Apera spica-venti; conditions: Apera spica-venti, post-emergence
In short: as §1

pigweed [2] = test: Test F preemergence; assay type: in vivo, Amaranthus retroflexus; conditions: 21 days, scale 0 to 100
Source text: as §2, §3

signalgrass = test: Test F preemergence; assay type: in vivo, Brachiaria platyphylla; conditions: 21 days, scale 0 to 100
In short: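 Preemergence application to seeded loam–sand soil, with compound delivered in a non-phytotoxic solvent plus surfactant; weed control assessed visually at 21 days (0–100 scale).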

pigweed [3] = test: Test D postemergence; assay type: in vivo, Amaranthus retroflexus; conditions: Amaranthus retroflexus, post-emergence
In short: as §1

canarygrass = test: Test D postemergence; assay type: in vivo, Phalaris minor; conditions: Phalaris minor, post-emergence
In short: as §1

spring barley = test: Test D postemergence; assay type: in vivo, Hordeum vulgare; conditions: Hordeum vulgare, post-emergence, Postemergence, scale 0 to 100 (0 no effect, 100 complete control), read-out: Plant response rating, Barley, Spring
In short: as §1

winter barley = test: Test D postemergence; assay type: in vivo, Hordeum vulgare; conditions: Hordeum vulgare, post-emergence, Postemergence, scale 0 to 100 (0 no effect, 100 complete control), read-out: Plant response rating, Barley, Winter
In short: as §1

galium = test: Test D preemergence; assay type: in vivo, Galium aparine; conditions: Galium, pre-emergence
In short: as §1

large (Lg) crabgrass = test: Test F preemergence; assay type: in vivo, Digitaria sanguinalis; conditions: 21 days, scale 0 to 100
Source text: as §2, §3

SMILES: N#Cc1cccc(Oc2ncc(Cl)cn2)c1-n1cc(OCC(F)(F)F)cn1 [Compound 274, 3-[(5-chloro-2-pyrimidinyl)oxy]-2-[4-(2,2,2-trifluoroethoxy)-1H-pyrazol-1-yl]benzonitrile]
- pest or weed control at 16 g/ha (kochia; 16 g ai/ha, scale 0-100, read-out: Plant response rating, Kochia): 60%
- pest or weed control at 31 g/ha (kochia; 31 g ai/ha, scale 0 to 100 (0 no effect, 100 complete control), read-out: Plant response rating, Kochia): 70%
- pest or weed control at 62 g/ha (kochia; 62 g ai/ha, scale 0 to 100 (0 no effect, 100 complete control), read-out: Plant response rating, Kochia): 90%
- pest or weed control at 125 g/ha (kochia; 125 g ai/ha, scale 0 to 100 (0 no effect, 100 complete control), read-out: Plant response rating, Kochia): 95%
- Plant response rating, Dallisgrass (dallisgrass; 16 g ai/ha): 95
- Plant response rating, Dallisgrass (dallisgrass; 31 g ai/ha): 100
- Plant response rating, Dallisgrass (dallisgrass; 62 g ai/ha): 100
- Plant response rating, Dallisgrass (dallisgrass; 125 g ai/ha): 100
- Plant response rating, Dallisgrass (dallisgrass; 250 g ai/ha): 100
- Plant response rating, Bermudagrass (bermudagrass; 16 g ai/ha): 85
- Plant response rating, Bermudagrass (bermudagrass; 31 g ai/ha): 100
- Plant response rating, Bermudagrass (bermudagrass; 62 g ai/ha): 100
- Plant response rating, Bermudagrass (bermudagrass; 125 g ai/ha): 100
- Plant response rating, Bermudagrass (bermudagrass; 250 g ai/ha): 100
- pest or weed control at 16 g/ha (pigweed [1]; 16 g ai/ha, scale 0 (no effect) to 100 (complete control), read-out: Plant response rating, Pigweed): 70%
- pest or weed control at 31 g/ha (pigweed [1]; 31 g ai/ha, scale 0 (no effect) to 100 (complete control), read-out: Plant response rating, Pigweed): 100%
- pest or weed control at 125 g/ha (pigweed [1]; 125 g ai/ha, scale 0-100, read-out: Plant response rating, Pigweed): 100%
- plant injury at 16 g/ha (winter wheat; 16 g ai/ha, scale 0-100, read-out: Plant response rating, Wheat, Winter): 10%
- plant injury at 31 g/ha (winter wheat; 31 g ai/ha, scale 0 to 100 (0 no effect, 100 complete control), read-out: Plant response rating, Wheat, Winter): 20%
- plant injury at 62 g/ha (winter wheat; 62 g ai/ha, scale 0 to 100 (0 no effect, 100 complete control), read-out: Plant response rating, Wheat, Winter): 20%
- plant injury at 125 g/ha (winter wheat; 125 g ai/ha, scale 0 to 100 (0 no effect, 100 complete control), read-out: Plant response rating, Wheat, Winter): 30%
- plant injury at 16 g/ha (spring wheat; 16 g ai/ha, scale 0-100, read-out: Plant response rating, Wheat, Spring): 10%
- plant injury at 31 g/ha (spring wheat; 31 g ai/ha, scale 0 to 100 (0 no effect, 100 complete control), read-out: Plant response rating, Wheat, Spring): 15%
- plant injury at 62 g/ha (spring wheat; 62 g ai/ha, scale 0 to 100 (0 no effect, 100 complete control), read-out: Plant response rating, Wheat, Spring): 15%
- plant injury at 125 g/ha (spring wheat; 125 g ai/ha, scale 0 to 100 (0 no effect, 100 complete control), read-out: Plant response rating, Wheat, Spring): 25%
- pest or weed control at 16 g/ha (windgrass; 16 g ai/ha, scale 0-100, read-out: Plant response rating, Windgrass): 15%
- pest or weed control at 31 g/ha (windgrass; 31 g ai/ha, scale 0 to 100 (0 no effect, 100 complete control), read-out: Plant response rating, Windgrass): 25%
- pest or weed control at 62 g/ha (windgrass; 62 g ai/ha, scale 0 to 100 (0 no effect, 100 complete control), read-out: Plant response rating, Windgrass): 35%
- pest or weed control at 125 g/ha (windgrass; 125 g ai/ha, scale 0 to 100 (0 no effect, 100 complete control), read-out: Plant response rating, Windgrass): 35%
- Plant response rating, Pigweed (pigweed [2]; 16 g ai/ha): 100
- Plant response rating, Pigweed (pigweed [2]; 31 g ai/ha): 100
- Plant response rating, Pigweed (pigweed [2]; 62 g ai/ha): 100
- Plant response rating, Pigweed (pigweed [2]; 125 g ai/ha): 100
- Plant response rating, Pigweed (pigweed [2]; 250 g ai/ha): 100
- Plant response rating, Signalgrass (signalgrass; 16 g ai/ha): 75
- Plant response rating, Signalgrass (signalgrass; 31 g ai/ha): 70
- Plant response rating, Signalgrass (signalgrass; 62 g ai/ha): 100
- Plant response rating, Signalgrass (signalgrass; 125 g ai/ha): 100
- Plant response rating, Signalgrass (signalgrass; 250 g ai/ha): 100
- pest or weed control at 16 g/ha (pigweed [3]; 16 g ai/ha, scale 0-100, read-out: Plant response rating, Pigweed): 75%
- pest or weed control at 31 g/ha (pigweed [3]; 31 g ai/ha, scale 0 to 100 (0 no effect, 100 complete control), read-out: Plant response rating, Pigweed): 95%
- pest or weed control at 62 g/ha (pigweed [3]; 62 g ai/ha, scale 0 to 100 (0 no effect, 100 complete control), read-out: Plant response rating, Pigweed): 95%
- pest or weed control at 125 g/ha (pigweed [3]; 125 g ai/ha, scale 0 to 100 (0 no effect, 100 complete control), read-out: Plant response rating, Pigweed): 95%
- pest or weed control at 16 g/ha (canarygrass; 16 g ai/ha, scale 0-100, read-out: Plant response rating, Canarygrass): 15%
- pest or weed control at 31 g/ha (canarygrass; 31 g ai/ha, scale 0 to 100 (0 no effect, 100 complete control), read-out: Plant response rating, Canarygrass): 20%
- pest or weed control at 62 g/ha (canarygrass; 62 g ai/ha, scale 0 to 100 (0 no effect, 100 complete control), read-out: Plant response rating, Canarygrass): 25%
- pest or weed control at 125 g/ha (canarygrass; 125 g ai/ha, scale 0 to 100 (0 no effect, 100 complete control), read-out: Plant response rating, Canarygrass): 30%
- plant injury at 16 g/ha (spring barley; 16 g ai/ha): 20%
- plant injury at 31 g/ha (spring barley; 31 g ai/ha): 25%
- plant injury at 62 g/ha (spring barley; 62 g ai/ha): 30%
- plant injury at 125 g/ha (spring barley; 125 g ai/ha): 35%
- plant injury at 16 g/ha (winter barley; 16 g ai/ha): 10%
- plant injury at 31 g/ha (winter barley; 31 g ai/ha): 20%
- plant injury at 62 g/ha (winter barley; 62 g ai/ha): 25%
- plant injury at 125 g/ha (winter barley; 125 g ai/ha): 30%
- pest or weed control at 16 g/ha (galium; 16 g ai/ha, scale 0 (no effect) to 100 (complete control), read-out: Plant response rating, Galium): 0%
- pest or weed control at 31 g/ha (galium; 31 g ai/ha, scale 0-100, read-out: Plant response rating, Galium): 60%
- pest or weed control at 62 g/ha (galium; 62 g ai/ha, scale 0-100, read-out: Plant response rating, Galium): 100%
- pest or weed control at 125 g/ha (galium; 125 g ai/ha, scale 0-100, read-out: Plant response rating, Galium): 100%
- Plant response rating, Crabgrass, Large (large (Lg) crabgrass; 16 g ai/ha): 100
- Plant response rating, Crabgrass, Large (large (Lg) crabgrass; 31 g ai/ha): 100
- Plant response rating, Crabgrass, Large (large (Lg) crabgrass; 62 g ai/ha): 100
- Plant response rating, Crabgrass, Large (large (Lg) crabgrass; 125 g ai/ha): 100
- Plant response rating, Crabgrass, Large (large (Lg) crabgrass; 250 g ai/ha): 100
